Reference: patent publication US20110207166A1, “Human bone marrow microenvironments and uses thereof” (priority 2009, published 2011)
Entries after “also recorded” stand apart in the source; their conditions may differ.

Key:
MSC niche = test: In vitro mesenchymal stem cell niche (cobblestone area) formation, phase contrast imaging; assay type: cell-based, human; conditions: SDF-1/CXCL12 10 ng/ml, AMD3100 10 μM
Description: Fresh human BM samples were obtained from orthopedic surgery after informed consent (Tissue Donor Program of the Feinstein Institute). The buffy coat containing the mononucleated cells (MNC) was isolated by Ficoll-density gradient separation (Stem Cell Technology, Vancouver). MNC were plated at low density in 6-well plates in Alpha-Mem (Lonza), 20% heat-inactivated fetal bovine serum (Hyclone), 5 mM L-Glutamine and 100 Units/ml Peni/Strep (Stem Cell Technologies) for overnight adherence. After 24-48 hours, the non-adherent cell fraction was discharged by rigorous pipetting. At day 5, single-cell derived mesenchymal colonies were processed for immunohistochemistry (Vectastain ABC kit, Vector Laboratories, Burlingame, Calif.). MSC were stained for CD90/Thy-1 (Mouse anti-human mAb, Clone 5E10, BD Pharmingen), CD105 (Mouse anti-human mAb, clone 266, BD Pharmingen), CD146 (Mouse monoclonal [P1H12] Abcam). Cells were also labeled for flow cytometry with CD34-APC (Miltenyi Biotec), CD105-FITC (R&D), CD45-FITC, CD90-PECy5, CD146-PE and CXCR4-PE (BD Pharmingen) including matching isotype controls.
Polyurethane scaffold test discs (10×1.5 mm—Biomerix) were placed inside a cloning cylinder (Millipore Corporation, MA), one cylinder in each well of a 24-well plate (Falcon, BD). […]

[1] = system: AML cells in MSC-coated scaffolds; test: In vivo mesenchymal leukemic niche in MSC-coated scaffolds implanted subcutaneously in NOD/SCID mice, CD45 immunohistochemistry; conditions: 4 weeks; in situ injection twice per week; SDF-1/CXCL12 10 ng/ml; AMD3100 10 μM; human CD45 stain
Description: Polyurethane scaffolds (10×1.5 mm—Biomerix), coated in vitro with human BM-derived MSC (day 5-7), were implanted in a subcutaneous pocket on the dorsum of non-irradiated NOD/SCID mice (Jackson laboratory) according to an approved IACUC animal protocol. Empty scaffolds (without MSC seeding) were used as negative controls. CD34+ HSC (1×10^5—Stem Cell Technology, Vancouver) or primary AML cells (1×10^7—cryopreserved and thawed) were injected either in situ or retro-orbital in the mice and analyzed for engraftment. The mice were treated twice per week with in situ injections of SDF-1/CXCL12 (10 ng/ml), AMD3100 (10 μM) or PBS (control). At week 1, week 4 and week 8, mice were sacrificed and the scaffolds, femurs and spleens were processed and evaluated for cell survival in the mesenchymal niche by immunohistochemistry.
Harvested scaffolds were fixed in formalin solution 10%, neutral buffered (HistoPak-StatLab Medical Products-TX) and paraffin embedded and cut on slides. […]
Each experiment was performed in duplicate, with two mice per experiment in each treatment arm and one mouse as a negative control. Multiple slides per scaffold were analyzed for imaging by immunohistochemistry and light microscopy. […]

CXCR4 = CXCR4 (Homo sapiens, UniProt P61073); conditions: AML; reference [42]; cited from earlier work
Sequence of CXCR4 (P61073 whole entry): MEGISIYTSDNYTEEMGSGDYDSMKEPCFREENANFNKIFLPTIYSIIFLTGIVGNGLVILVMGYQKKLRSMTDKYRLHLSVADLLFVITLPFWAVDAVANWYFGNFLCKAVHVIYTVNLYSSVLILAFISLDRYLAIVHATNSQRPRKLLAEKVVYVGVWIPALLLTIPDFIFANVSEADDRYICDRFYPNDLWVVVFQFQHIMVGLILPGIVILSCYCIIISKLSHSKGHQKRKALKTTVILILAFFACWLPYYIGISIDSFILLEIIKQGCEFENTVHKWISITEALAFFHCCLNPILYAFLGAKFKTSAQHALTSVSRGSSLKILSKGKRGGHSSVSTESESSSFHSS

Molecule	cobblestone area formation / migration of hematopoietic progenitors underneath the MSC (MSC niche)	MSC stromal layer and adherence of AML cells in MSC-coated scaffold [1]	effect on chemoprotective effects of the stromal cell-leukemia interaction (CXCR4)
c1cc(CN2CCCNCCNCCCNCC2)ccc1CN1CCCNCCNCCCNCC1 [AMD3100]	MSC remain empty and hematopoietic progenitors do not migrate underneath the MSC; also recorded: the cytoplasm remained empty	the stromal lining is thin and disrupted at several points, leaving AML cells free floating in proximity; also recorded: interact with AML homing by stem cell niche disruption at the level of the stromal layer; also recorded: thin stromal lining that was disrupted at several points, leaving AML cells free floating in proximity; also recorded: the MSC stroma became ruffled and non-adherent and AML remained only loosely attached	–
c1ccc(CNCc2ccc(CN3CCCNCCNCCCNCC3)cc2)nc1 [AMD3465]	–	–	prevent the chemoprotective effects of the stromal cell-leukemia interaction
SDF-1/CXCL12: chemokine stromal-cell derived factor, ligand of CXCR4 (R&D Systems)	cobblestone area formation	thick proliferation of the MSC stromal layer with multiple adherent AML cells present; also recorded: upregulates adhesion of AML cells to the stroma; also recorded: induces hyperproliferation of the mesenchymal stroma compartment	–
